The values below come from US12655175B2, “C17, C20, and C21 substituted neuroactive steroids and their methods of use” (Sage Therapeutics, LLC, priority 2016, dated 2026).

Structures are written as SMILES.

In the assay the target is GABAA receptor. Description: Steroid inhibition of [35S]-TBPS binding. The note with it: rat brain cortical membranes, 3 nM [35S]-TBPS, in the presence of 5 mM GABA. How it is done: Steroid Inhibition of TBPS Binding
Briefly, cortices are rapidly removed following decapitation of carbon dioxide-anesthetized Sprague-Dawley rats ([…]). The cortices are homogenized in 10 volumes of ice-cold 0.32 M sucrose using a glass/teflon homogenizer and centrifuged at 1500×g for 10 min at 4° C. The resultant supernatants are centrifuged at 10,000×g for 20 min at 4° C. to obtain the P2 pellets. The P2 pellets are resuspended in 200 mM NaCl/50 mM Na—K phosphate pH 7.4 buffer and centrifuged at 10,000×g for 10 min at 4° C. This washing procedure is repeated twice and the pellets are resuspended in 10 volumes of buffer. Aliquots ([…]) of the membrane suspensions are incubated with 3 nM [^35S]-TBPS and […] aliquots of test drug dissolved in dimethyl sulfoxide (DMSO) (final 0.5%) in the presence of 5 mM GABA. The incubation is brought to a final volume of 1.0 mL with buffer. […] Following a 90 min incubation at room temp, the assays are terminated by filtration through glass fiber filters (Schleicher and Schuell No. 32) using a cell harvester (Brandel) and rinsed three times with ice-cold buffer. Filter bound radioactivity is measured by liquid scintillation spectrometry. Non-linear curve fitting of the overall data for each drug averaged for each concentration is done using Prism (GraphPad).
Various compounds are or can be screened to determine their potential as modulators of [^35S]-TBPS binding in vitro. These assays are or can be performed in accordance with the above discussed procedures.

In general, IC50 refers to the concentration needed to halve the response being measured. Consider `C[C@@]1(O)CC[C@H]2[C@@H](CC[C@@H]3[C@@H]2CC[C@]2(C)[C@@H](C(=O)CNc4ccccc4)CC[C@@H]32)C1` [Compound 64], for which the IC50 fell in the range of 50 to 100 nM. In the case of `C[C@H](c1ccc(C#N)cc1)N(C)C(=O)[C@H]1CC[C@H]2[C@@H]3CC[C@@H]4C[C@@](O)(C(F)(F)F)CC[C@@H]4[C@H]3CC[C@]12C` [Compound 69], the IC50 lay in the range of 100 to 500 nM. As for `CN(C(=O)[C@H]1CC[C@H]2[C@@H]3CC[C@@H]4C[C@](C)(O)CC[C@@H]4[C@H]3CC[C@]12C)C1CCCCC1` [Compound 9], the figure is 100 to 500 nM. As to `Cc1ccc([C@H]2CC[C@H]3[C@@H]4CC[C@@H]5C[C@](C)(O)CC[C@@H]5[C@H]4CC[C@]23C)cc1` [Compound 102], the IC50 is 100 to 500 nM. As for `C[C@@]1(O)CC[C@H]2[C@H](CC[C@@H]3[C@@H]2CC[C@]2(C)[C@@H](C(=O)NCc4ccccc4)CC[C@@H]32)C1` [Compound 1], the figure is 50 to 100 nM. Regarding `COC(=O)N(C)[C@H]1CC[C@H]2[C@@H]3CC[C@H]4C[C@](C)(O)CC[C@]4(C)[C@H]3CC[C@]12C` [Compound 99], the IC50 was > 500 nM. Then `CN([C@H]1CC[C@H]2[C@@H]3CC[C@H]4C[C@](C)(O)CC[C@]4(C)[C@H]3CC[C@]12C)S(C)(=O)=O` [Compound 98], with > 500 nM. As for `COC[C@]12CC[C@](O)(C(F)(F)F)C[C@H]1CC[C@H]1[C@@H]3CC[C@H](C(=O)Nc4ccccc4)[C@@]3(C)CC[C@@H]12` [Compound 78], the figure is 50 to 100 nM; as for `CO[C@H]1C[C@@]2(C)[C@@H](CC[C@@H]3[C@@H]2CC[C@]2(C)[C@@H]([N+](=O)[O-])CC[C@@H]32)C[C@@H]1O` [Compound 118], 10 to 50 nM. As to `C[C@@]1(O)CC[C@H]2[C@H](CC[C@@H]3[C@@H]2CC[C@]2(C)[C@@H](C(=O)N4CCCCC4)CC[C@@H]32)C1` [Compound 5], the 50% inhibitory concentration (IC50) fell in the range of 50 to 100 nM. Regarding `CCOC[C@@]1(O)CC[C@H]2[C@H](CC[C@@H]3[C@@H]2CC[C@]2(C)[C@@H](C(=O)N(C)[C@@H](CC)c4ccc(F)cc4)CC[C@@H]32)C1` [Compound 57], the half-inhibitory concentration (IC50) was 100 to 500 nM.

For `CN(CC(=O)[C@H]1CC[C@H]2[C@@H]3CC[C@@H]4C[C@](C)(O)CC[C@@H]4[C@H]3CC[C@]12C)c1ccc(F)cc1` [Compound 43], the IC50 was 10 to 50 nM. For `C[C@@]1(O)CC[C@H]2[C@H](CC[C@@H]3[C@@H]2CC[C@]2(C)[C@@H](C(=O)NCc4ccccn4)CC[C@@H]32)C1` [Compound 15], the IC50 was in the range of 100 to 500 nM. Consider `CN(Cc1ccncc1)C(=O)[C@H]1CC[C@H]2[C@@H]3CC[C@@H]4C[C@](C)(O)CC[C@@H]4[C@H]3CC[C@]12C` [Compound 13], for which the 50% inhibitory concentration (IC50) is 100 to 500 nM. Consider `C[C@@]1(O)CC[C@@]2(C)[C@@H](CC[C@@H]3[C@@H]2CC[C@]2(C)[C@@H](NCc4ccccc4)CC[C@@H]32)C1` [Compound 92], for which the IC50 was > 500 nM.

As for `C[C@@]1(O)CC[C@H]2[C@H](CC[C@@H]3[C@@H]2CC[C@]2(C)[C@@H](C(=O)N4CCCCCC4)CC[C@@H]32)C1` [Compound 23], the concentration for half-maximal inhibition (IC50) was 100 to 500 nM. In the case of `CN(CC1CCCCC1)C(=O)[C@H]1CC[C@H]2[C@@H]3CC[C@@H]4C[C@](C)(O)CC[C@@H]4[C@H]3CC[C@]12C` [Compound 26], the IC50 fell in the range of 100 to 500 nM. As for `CCO[C@H]1C[C@@]2(C)[C@@H](CC[C@@H]3[C@@H]2[C@@H](O)C[C@]2(C)[C@@H]([N+](=O)[O-])CC[C@@H]32)C[C@@H]1O` [Compound 122], the figure is 100 to 500 nM. For the molecule `CCOC[C@]12CC[C@@](C)(O)C[C@@H]1CC[C@H]1[C@@H]3CC[C@H](C(=O)CNc4ccccc4)[C@@]3(C)CC[C@@H]12` [Compound 66], the IC50 lay within 50 to 100 nM. As to `CN(CC(=O)[C@H]1CC[C@H]2[C@@H]3CC[C@@H]4C[C@](C)(O)CC[C@@H]4[C@H]3CC[C@]12C)c1cccc(F)c1` [Compound 42], the IC50 fell in the range of 10 to 50 nM. As for `CO[C@H]1C[C@@]2(C)[C@@H](CC[C@H]3[C@@H]4CC[C@H]([N+](=O)[O-])[C@@]4(C)CC(=O)[C@@H]32)C[C@@H]1O` [Compound 121], the figure is 100 to 500 nM; as for `CN(CC1CCOCC1)C(=O)[C@H]1CC[C@H]2[C@@H]3CC[C@@H]4C[C@](C)(O)CC[C@@H]4[C@H]3CC[C@]12C` [Compound 14], > 500 nM. As for `C[C@@]1(O)CC[C@H]2[C@H](CC[C@@H]3[C@@H]2CC[C@]2(C)[C@@H](C(=O)CNc4cccc(F)c4)CC[C@@H]32)C1` [Compound 41], the figure is < 10 nM; as for `C[C@@]1(O)CC[C@@]2(C)[C@@H](CC[C@@H]3[C@@H]2CC[C@]2(C)[C@@H](Nc4cccc(F)c4)CC[C@@H]32)C1` [Compound 90], 100 to 500 nM.

With `CN(c1ccccc1)[C@H]1CC[C@H]2[C@@H]3CC[C@H]4C[C@](C)(O)CC[C@]4(C)[C@H]3CC[C@]12C` [Compound 88], the IC50 is > 500 nM.

Consider `CN(CC(=O)[C@H]1CC[C@H]2[C@@H]3CC[C@H]4C[C@](C)(O)CC[C@@H]4[C@H]3CC[C@]12C)c1ccccc1` [Compound 63], for which the IC50 lay within 100 to 500 nM. Consider `CCOC[C@@]1(O)CC[C@H]2[C@H](CC[C@@H]3[C@@H]2CC[C@]2(C)[C@@H](C(=O)N4CCCCC4)CC[C@@H]32)C1` [Compound 50], for which the IC50 was in the range of 100 to 500 nM.

Take `CO[C@H]1C[C@@]2(C)[C@@H](CC[C@@H]3[C@@H]2[C@@H](O)C[C@]2(C)[C@@H]([N+](=O)[O-])CC[C@@H]32)C[C@@H]1O` [Compound 120]: the IC50 was 100 to 500 nM. Regarding `C[C@@]1(O)CC[C@H]2[C@H](CC[C@@H]3[C@@H]2CC[C@]2(C)[C@@H](C(=O)N4CCCOCC4)CC[C@@H]32)C1` [Compound 6], the IC50 was > 500 nM. Consider `C[C@@]1(O)CC[C@H]2[C@H](CC[C@@H]3[C@@H]2CC[C@]2(C)[C@@H](C(=O)NCc4cccnc4)CC[C@@H]32)C1` [Compound 12], for which the 50% inhibitory concentration (IC50) was > 500 nM. For `C[C@@]1(O)CC[C@@]2(C)[C@@H](CC[C@@H]3[C@@H]2CC[C@]2(C)[C@@H](NS(C)(=O)=O)CC[C@@H]32)C1` [Compound 97], the IC50 was > 500 nM. On to `CCO[C@H]1C[C@@]2(C)[C@@H](CC[C@H]3[C@@H]4CC[C@H]([N+](=O)[O-])[C@@]4(C)CC(=O)[C@@H]32)C[C@@H]1O` [Compound 123], for which the IC50 was in the range of 50 to 100 nM. In the case of `C[C@]12CC[C@](O)(C(F)(F)F)C[C@@H]1CC[C@@H]1[C@@H]2CC[C@]2(C)[C@@H](C(=O)CNc3ccccc3)CC[C@@H]12` [Compound 73], the 50% inhibitory concentration (IC50) is 50 to 100 nM.

On to `COC[C@]12CC[C@](O)(C(F)(F)F)C[C@H]1CC[C@H]1[C@@H]3CC[C@H](C(=O)NC4CCCCC4)[C@@]3(C)CC[C@@H]12` [Compound 80], for which the concentration for half-maximal inhibition (IC50) is > 500 nM. As for `CCOC[C@@]1(O)CC[C@H]2[C@H](CC[C@@H]3[C@@H]2CC[C@]2(C)[C@@H](C(=O)N(C)[C@H](CC)c4ccc(F)cc4)CC[C@@H]32)C1` [Compound 56], the figure is 100 to 500 nM. Then `C[C@@]1(O)CC[C@H]2[C@H](CC[C@@H]3[C@@H]2CC[C@]2(C)[C@@H](c4ccccn4)CC[C@@H]32)C1` [Compound 108], with 100 to 500 nM. As for `C[C@@]1(O)CC[C@@]2(C)[C@@H](CC[C@@H]3[C@@H]2CC[C@]2(C)[C@@H](N)CC[C@@H]32)C1` [Compound 93], the IC50 was > 500 nM.

`CCOC[C@@]1(O)CC[C@H]2[C@H](CC[C@@H]3[C@@H]2CC[C@]2(C)[C@@H](C(=O)N(C)[C@H](C)c4ccc(F)cc4)CC[C@@H]32)C1` [Compound 61]: the half-inhibitory concentration (IC50) was in the range of 100 to 500 nM. On to `CC(=O)N[C@H]1CC[C@H]2[C@@H]3CC[C@H]4C[C@](C)(O)CC[C@]4(C)[C@H]3CC[C@]12C` [Compound 95], for which the IC50 is > 500 nM.

On to `C[C@@]1(O)CC[C@H]2[C@H](CC[C@@H]3[C@@H]2CC[C@]2(C)[C@@H](C(=O)NCC4CCOCC4)CC[C@@H]32)C1` [Compound 24], for which the IC50 was > 500 nM. As for `C[C@@]1(O)CC[C@H]2[C@H](CC[C@@H]3[C@@H]2CC[C@]2(C)[C@@H](C4CCCC4)CC[C@@H]32)C1` [Compound 109], the figure is > 500 nM; as for `COC[C@]12CC[C@](O)(C(F)(F)F)C[C@H]1CC[C@H]1[C@@H]3CC[C@H](C(=O)CNc4ccccc4)[C@@]3(C)CC[C@@H]12` [Compound 77], 10 to 50 nM.
